Like-named read-outs stand apart in the source and are kept apart here.
Key:
pressor response to AII [1] = test: Assay C: In vivo intragastric pressor assay response for AII antagonists; set-up: species or system rat; conditions: dose not given, intraduodenally
pressor response to AII [2] = test: as above; set-up: species or system rat; conditions: dose not given, intragastrically
Procedure: Assay C: In Vivo Intragastric Pressor Assay Response for All Antagonists
Male Sprague-Dawley rats weighing 225-300 grams were anesthetized with methohexital (30 mg/kg, i.p.) and catheters were implanted into the femoral artery and vein. The catheters were tunneled subcutaneously to exit dorsally, posterior to the head and between the scapulae. The catheters were filled with heparin (1000 units/ml of saline). The rats were returned to their cage and allowed regular rate chow and water ad libitum. After full recovery from surgery (3-4 days), rats were placed in Lucite holders and the arterial line was connected to a pressure transducer. Arterial pressure was recorded on a Gould polygraph (mmHg). Angiotensin II was administered as a 30 ng/kg bolus via the venous catheter delivered in a 50 μl volume with a 0.1 ml saline flush. The pressor response in mm Hg was measured by the difference from pre-injection arterial pressure to the maximum pressure achieved. The AII injection was repeated every 10 minutes until three consecutive injections yielded responses within 4 mmHg of each other. These three responses were then averaged and represented the control response to AII. The test compound was suspended in 0.5% methylcellulose in water and was administered by gavage. The volume administered was 2 ml/kg body weight. The standard dose was 3 mg/kg. Angiotensin II bolus injections were given at 30, 45, 60, 75, 120, 150, and 180 minutes after gavage. The pressor response to AII was measured at each time point. The rats were then returned to their cage for future testing. A minimum of 3 days was allowed between tests. Percent inhibition was calculated for each time point following gavage by the following formula: [(Control Response—Response at time point)/Control Response]×100.

[3] = target: angiotensin II AT1 receptor; test: Assay A: Angiotensin II binding activity, 125I-AII displacement in rat uterine membrane preparation
Procedure: Assay A: Antiotensin II Binding Activity
Compounds of the invention were tested for ability to bind to the smooth muscle angiotensin II receptor using a rat uterine membrane preparation. […] The reaction was initiated by the addition of membrane protein and the mixture was incubated at 25° C. for 60 min. The incubation was terminated with ice-cold 50 mM Tris-HCl (pH 7.5) and the mixture was filtered to separate membrane-bound labelled peptide from the free ligand. The incubation tube and filter were washed with ice-cold buffer. Filters were assayed for radioactivity in a Micromedic gamma counter. Nonspecific binding was defined as binding in the presence of 10 μM of unlabelled AII. Specific binding was calculated as total binding minus nonspecific binding. […] Binding data were analyzed by a nonlinear least-squares curve fitting program.

rabbit aortic rings = test: Assay B: In vitro vascular smooth muscle response for AII, antagonist activity in aortic rings; format: cell-based; conditions: Oryctolagus cuniculus, two determinations separated by /, read-out: Assay B pA2 (converted)
Procedure: Assay B: In Vitro Vascular Smooth Muscle-Response for AII
The compounds of the invention were tested for antagonist activity in rabbit aortic rings. Male New Zealand white rabbits (2-2.5 kg) were sacrificed using an overdose of pentobarbital and exsanguinated via the carotid arteries. The thoracic aorta was removed, cleaned of adherent fat and connective tissue and then cut into 3-mm ring segments. The endothelium was removed from the rings by gently sliding a rolled-up piece of filter paper into the vessel lumen. The rings were then mounted in a water-jacketed tissue bath, maintained at 37° C., between moveable and fixed ends of a stainless steel wire with the moveable end attached to an FT03 Grass transducer coupled to a Model 7D Grass Polygraph for recording isometric force responses. The bath was filled with 20 ml of oxygenated (95% oxygen/5% carbon dioxide) Krebs solution of the following composition (mM); 130 NaCl, 15 NaHCO3, […], 1.2 NaH2PO4, 1.2 MgSO4, 2.5 CaCl2, and 11.4 glucose. The preparations were equilibrated for one hour before approximately one gram of passive tension was placed on the rings. Angiotensin II concentration-response curves were then recorded (3×10^−10 to 1×10^−5 M). Each concentration of AII was allowed to elicit its maximal contraction, and then AII was washed out repeatedly for 30 minutes before rechallenging with a higher concentration of AII. Aorta rings were exposed to the test antagonist at 10^−5 M for 5 minutes before challenging with AII. Adjacent segments of the same aorta ring were used for all concentration-response curves in the presence of absence of the test antagonist. The effectiveness of the test compound was expressed in terms of pA2 values and were calculated according to H. O. Schild [Br. J. Pharmacol. Chemother., 2, 189-206 (1947)]. The pA2 value is the concentration of the antagonist which increases the EC50 value for AII by a factor of two. Each test antagonist was evaluated in aorta rings from two rabbits.

myocardial fibrosis = conditions: animal models, cited from earlier work

IC50 [3] [nM] | Structure (SMILES) | Assay C Duration (pressor response to AII [2]) [min] | other results
– | CCCCc1nn(CCCC)c(=O)n1Cc1ccc(-c2ccccc2C(=O)O)cc1 [Compound 78] | – | Assay C Duration (pressor response to AII [1]): 60 to 100 min
– | CCCCc1nn(CCCc2ccccc2)c(=O)n1Cc1ccc(-c2ccccc2-c2nn[nH]n2)cc1 [Compound 81] | 180 | –
– | CCCCc1nn(CC(=O)c2ccccc2)c(=O)n1Cc1ccc(-c2ccccc2-c2nn[nH]n2)cc1 [Compound 82] | 180 | –
– | CCCCc1nn(CC(O)c2ccccc2)c(=O)n1Cc1ccc(-c2ccccc2-c2nn[nH]n2)cc1 (stereo not drawn) [Compound 83] | >180 | –
– | CCCCc1nn(CC(=O)OC(C)(C)C)c(=O)n1Cc1ccc(-c2ccccc2-c2nn[nH]n2)cc1 [Compound 84] | 30 | –
– | CCCCc1nn(CC(OCC(=O)O)c2ccccc2)c(=O)n1Cc1ccc(-c2ccccc2-c2nn[nH]n2)cc1 (stereo not drawn) [Compound 91] | >180 | –
22 | CCCCc1nn(CC(C)c2cc(OC)ccc2OC)c(=O)n1Cc1ccc(-c2ccccc2-c2nn[nH]n2)cc1 (stereo not drawn) [Compound 98] | – | Kb (rabbit aortic rings): 7.94 nM
40 | CCCCc1nc2c(OC(C)=O)nnc(OC(C)=O)c2n1Cc1ccc(-c2ccccc2-c2nnn[nH]2)cc1 [Compound 125] | – | –
– | CCCCc1cn(CCc2ccccc2)c(=O)n1Cc1ccc(-c2ccccc2-c2nnn[nH]2)cc1 [Compound 133] | 90 to 120 | –
– | CCCCc1nc(CCCC)n(Cc2ccc(-n3c(Cl)cc(Cl)c3-c3nnn[nH]3)cc2)n1 [Compound 143] | – | Assay C Duration (pressor response to AII [1]): 75 min
380 | CCCn1nc(C(F)F)nc1Cc1ccc(-c2ccccc2-c2nnn[nH]2)nc1 [Compound 162] | – | –
420 | CCCCn1nc(C(F)F)nc1Cc1ccc(-c2ccccc2-c2nnn[nH]2)nc1 [Compound 163] | – | –
– | CC(=O)S[C@@H]1CC2=CC(=O)CC[C@]2(C)[C@H]2CC[C@@]3(C)[C@@H](CC[C@@]34CCC(=O)O4)[C@H]12 [spironolactone] | – | prevention of myocardial fibrosis (myocardial fibrosis): prevents myocardial fibrosis in animal models; prevention of myocardial fibrosis (myocardial fibrosis; listed as Spironolactone): prevent fibrosis in animal models irrespective of the development of left ventricular hypertrophy and the presence of hypertension

Reference: patent US6984633B2, “Method to treat cardiofibrosis with a combination therapy of an angiotensin II antagonist and epoxymexrenone” (G.D Searle & Co., priority 1995, dated 2006)
